From PubChem BioAssay AID2060901 (Molecular Pharmacology Branch, DTP, NCI, 2025)

Test system: 422866-222-R5-J1-PDC complex spheroids viability
Assay: Anticancer human tumor 422866-222-R5-J1-PDC patient-derived pancreatic adenocarcinoma cell line growth inhibition [RAS]
Conditions: for IC50: curve of first compound; for viability, T/C: stronger effect = lower value
Outline: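 Tumour cells grown as complex spheroids with HUVEC endothelial cells and mesenchymal stem cells, treated with RAS pathway inhibitor combinations. Each agent spans half-log steps from near clinical Cmax, or 10 microM where Cmax is unknown.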

[1] = second compound 0.000949 µM, first compound 0.0316 µM
[2] = second compound 0.000949 µM, first compound 0.1 µM
[3] = second compound 0.000949 µM, first compound 0.316 µM
[4] = second compound 0.000949 µM, first compound 1 µM
[5] = second compound 0.003 µM, first compound 0.0316 µM
[6] = second compound 0.003 µM, first compound 0.1 µM
[7] = second compound 0.003 µM, first compound 0.316 µM
[8] = second compound 0.003 µM, first compound 1 µM
[9] = second compound 0.00949 µM, first compound 0.0316 µM
[10] = second compound 0.00949 µM, first compound 0.1 µM
[11] = second compound 0.00949 µM, first compound 0.316 µM
[12] = second compound 0.00949 µM, first compound 1 µM
[13] = second compound 0.03 µM, first compound 0.0316 µM
[14] = second compound 0.03 µM, first compound 0.1 µM
[15] = second compound 0.03 µM, first compound 0.316 µM
[16] = second compound 0.03 µM, first compound 1 µM
[17] = second compound 0.0949 µM, first compound 0.0316 µM
[18] = second compound 0.0949 µM, first compound 0.1 µM
[19] = second compound 0.0949 µM, first compound 0.316 µM
[20] = second compound 0.0949 µM, first compound 1 µM
[21] = second compound 0.3 µM, first compound 0.0316 µM
[22] = second compound 0.3 µM, first compound 0.1 µM
[23] = second compound 0.3 µM, first compound 0.316 µM
[24] = second compound 0.3 µM, first compound 1 µM
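Note: spheroids exposed to compounds for 7 days.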
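Throughout, for viability, T/C: 100% = DMSO vehicle control viability.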

SMILES: CC(C)NCC(C(=O)N1CCN(c2ncnc3c2C(C)CC3O)CC1)c1ccc(Cl)cc1 (centres undefined) + CCn1c(-c2cccnc2C(C)OC)c2c3cc(ccc31)N1CCOC(CC(NC(=O)C(C(C)C)N(C)C(=O)C3(F)CCN(C(=O)C#CC(C)(C)N(C)C)CC3)C(=O)N3CCCC(N3)C(=O)OCC(C)(C)C2)C1
- IC50 (second compound 0.000949 µM): < 31.6 nM
- IC50 (second compound 0.003 µM): < 31.6 nM
- IC50 (second compound 0.00949 µM): < 31.6 nM
- IC50 (second compound 0.03 µM): < 31.6 nM
- IC50 (second compound 0.0949 µM): < 31.6 nM
- IC50 (second compound 0.3 µM): < 31.6 nM
- viability, T/C [1]: 23%
- viability, T/C [2]: 23.2%
- viability, T/C [3]: 17.5%
- viability, T/C [4]: 25%
- viability, T/C (second compound 0.000949 µM, first compound 3.16 µM): 30.9%
- viability, T/C (second compound 0.000949 µM, first compound 10 µM): 29.7%
- viability, T/C [5]: 22.5%
- viability, T/C [6]: 17.6%
- viability, T/C [7]: 14.4%
- viability, T/C [8]: 14.7%
- viability, T/C (second compound 0.003 µM, first compound 3.16 µM): 14.4%
- viability, T/C (second compound 0.003 µM, first compound 10 µM): 16.7%
- viability, T/C [9]: 21.1%
- viability, T/C [10]: 18.9%
- viability, T/C [11]: 13.8%
- viability, T/C [12]: 13.3%
- viability, T/C (second compound 0.00949 µM, first compound 3.16 µM): 14.8%
- viability, T/C (second compound 0.00949 µM, first compound 10 µM): 14.6%
- viability, T/C [13]: 17.5%
- viability, T/C [14]: 16%
- viability, T/C [15]: 12.9%
- viability, T/C [16]: 12.1%
- viability, T/C (second compound 0.03 µM, first compound 3.16 µM): 14.2%
- viability, T/C (second compound 0.03 µM, first compound 10 µM): 16.2%
- viability, T/C [17]: 15.2%
- viability, T/C [18]: 12%
- viability, T/C [19]: 11.8%
- viability, T/C [20]: 13.2%
- viability, T/C (second compound 0.0949 µM, first compound 3.16 µM): 15.3%
- viability, T/C (second compound 0.0949 µM, first compound 10 µM): 14.1%
- viability, T/C [21]: 13.8%
- viability, T/C [22]: 13.4%
- viability, T/C [23]: 11.3%
- viability, T/C [24]: 11.4%
- viability, T/C (second compound 0.3 µM, first compound 3.16 µM): 14.7%
- viability, T/C (second compound 0.3 µM, first compound 10 µM): 11.6%

SMILES: C=CC(=O)Nc1cc(Nc2nccc(-c3cn(C)c4ccccc34)n2)c(OC)cc1N(C)CCN(C)C + CCn1c(-c2cccnc2C(C)OC)c2c3cc(ccc31)N1CCOC(CC(NC(=O)C(C(C)C)N(C)C(=O)C3(F)CCN(C(=O)C#CC(C)(C)N(C)C)CC3)C(=O)N3CCCC(N3)C(=O)OCC(C)(C)C2)C1
- IC50 (second compound 0.000949 µM): < 3.16 nM
- IC50 (second compound 0.003 µM): < 3.16 nM
- IC50 (second compound 0.00949 µM): < 3.16 nM
- IC50 (second compound 0.03 µM): < 3.16 nM
- IC50 (second compound 0.0949 µM): < 3.16 nM
- IC50 (second compound 0.3 µM): < 3.16 nM
- viability, T/C (second compound 0.000949 µM, first compound 0.00316 µM): 26.2%
- viability, T/C (second compound 0.000949 µM, first compound 0.01 µM): 27.5%
- viability, T/C [1]: 26.2%
- viability, T/C [2]: 23%
- viability, T/C [3]: 19.7%
- viability, T/C [4]: 22.6%
- viability, T/C (second compound 0.003 µM, first compound 0.00316 µM): 25%
- viability, T/C (second compound 0.003 µM, first compound 0.01 µM): 19.2%
- viability, T/C [5]: 23.7%
- viability, T/C [6]: 16.8%
- viability, T/C [7]: 14.6%
- viability, T/C [8]: 15.2%
- viability, T/C (second compound 0.00949 µM, first compound 0.00316 µM): 21.9%
- viability, T/C (second compound 0.00949 µM, first compound 0.01 µM): 21.4%
- viability, T/C [9]: 17.2%
- viability, T/C [10]: 16.4%
- viability, T/C [11]: 13.8%
- viability, T/C [12]: 16.4%
- viability, T/C (second compound 0.03 µM, first compound 0.00316 µM): 29.2%
- viability, T/C (second compound 0.03 µM, first compound 0.01 µM): 19.8%
- viability, T/C [13]: 14.6%
- viability, T/C [14]: 15.8%
- viability, T/C [15]: 15.9%
- viability, T/C [16]: 15.4%
- viability, T/C (second compound 0.0949 µM, first compound 0.00316 µM): 18.7%
- viability, T/C (second compound 0.0949 µM, first compound 0.01 µM): 16.2%
- viability, T/C [17]: 15.5%
- viability, T/C [18]: 11.9%
- viability, T/C [19]: 13.5%
- viability, T/C [20]: 13.1%
- viability, T/C (second compound 0.3 µM, first compound 0.00316 µM): 15.2%
- viability, T/C (second compound 0.3 µM, first compound 0.01 µM): 15.7%
- viability, T/C [21]: 17.4%
- viability, T/C [22]: 13.8%
- viability, T/C [23]: 13.7%
- viability, T/C [24]: 13.2%
